Laboratory results reported in patent publication EP0115929A1, “Novel organic platinum complex and process for the preparation thereof” (priority 1983, dated 1984).

What was measured:
Leukemia L-1210 = assay: Effect on life span of mice implanted with Leukemia L-1210 (Method B); type: in vivo; conditions: for ILS30: denominator in brackets of the therapeutic index cell; for ILS30 / OD: dose column in mg/kg/day; for 60-day survivors: survivors/mice in group; for OD: numerator in brackets of the therapeutic index cell; for increase in the life span of mice: dose of 50 mg/kg/day
Description: […] test compound was begun 24 hours after the inoculation of the leukemic cells and performed once a day for 5 days. The survival days of the treated mice were observed.

[1] = test system: Ehrlich ascites carcinoma; assay: Preventive effect against the growth of Ehrlich ascites carcinoma (Method A); type: in vivo, mice; conditions: for MTD: footnote *3 in image, dose column in mg/kg/day; for MED: footnote *4 in image, b22: minimum effective dose per day which causes 100 % inhibition, in mg/kg/day; for M.E.D.: minimum effective dose per day which causes 100 % inhibition of Ehrlich ascites carcinoma
Description: It may be useful to prolong the survival time of warm-blood .animals, including human,.afflicted with tumors and/or minimize the growth of tumors in said animals. […] The compound of the present invention is also useful for the treatment of various other tumors such as prostate tumor, orchis tumor, ovary tumor, malignant lymphoma, leukemia, breast cancer and the like.

[2] = dose 1.56 mg/kg/day, (C - T)/C x 100
[3] = dose 3.12 mg/kg/day, (C - T)/C x 100
[4] = dose 6.25 mg/kg/day, (C - T)/C x 100
[5] = dose 25 mg/kg/day, (C - T)/C x 100
[6] = dose 100 mg/kg/day, (C - T)/C x 100
[7] = dose 200 mg/kg/day, cell prints toxicity instead of inhibition (footnote *6 in image)

Row | Substance | ILS30 (Leukemia L-1210) | ILS (%) (Leukemia L-1210; dose 1.56 mg/kg/day) | 60-day survivors (Leukemia L-1210; dose 1.56 mg/kg/day) | ILS (%) (Leukemia L-1210; dose 3.12 mg/kg/day) | 60-day survivors (Leukemia L-1210; dose 3.12 mg/kg/day) | ILS (%) (Leukemia L-1210; dose 6.25 mg/kg/day) | 60-day survivors (Leukemia L-1210; dose 6.25 mg/kg/day) | ILS (%) (Leukemia L-1210; dose 12.5 mg/kg/day) | 60-day survivors (Leukemia L-1210; dose 12.5 mg/kg/day) | ILS (%) (Leukemia L-1210; dose 25 mg/kg/day) | 60-day survivors (Leukemia L-1210; dose 25 mg/kg/day) | ILS (%) (Leukemia L-1210; dose 50 mg/kg/day) | 60-day survivors (Leukemia L-1210; dose 50 mg/kg/day) | ILS (%) (Leukemia L-1210; dose 100 mg/kg/day) | 60-day survivors (Leukemia L-1210; dose 100 mg/kg/day) | OD (Leukemia L-1210) | Inhibition rate (%) [1, 2] [%] | Inhibition rate (%) [1, 3] [%] | Inhibition rate (%) [1, 4] [%] | Inhibition rate (%) [1, 5] [%] | also measured
1 | cis-Dioxamato(2-aminomethylpyridine) platinum (II) [Compound 3] | 1.65 | 28.6 | 0/4 | 47.1 | 0/4 | 85.7 | 0/4 | 90.0 | 0/4 | 100.0 | 0/4 | >607.1 | 3/4 | >757.1 | 4/4 | 100 | – | – | – | – | –
2 | cis-Malonato(2-aminomethylpyridine) platinum (II) [Compound 2] | 1.8 | 25.7 | 0/4 | 47.1 | 0/4 | 61.4 | 0/4 | 92.9 | 0/4 | 185.7 | 0/4 | >757.1 | 4/4 | >757.1 | 4/4 | 100 | 12.9 | 100 | 100 | 100 | Inhibition rate (%) [1, 6]: 100%; Inhibition rate (%) [1, 7]: Toxic(5/5)^*6; MTD [1]: 100; MED [1]: 3.12; M.E.D. [1]: 3.12 mg/kg/day; increase in the life span of mice (Leukemia L-1210): more than 745%
3 | cis-Oxalato(2-aminomethylpyridine) platinum (II) [Compound 1] | 1.3 | 33.8 | 0/4 | 52.1 | 0/4 | 80.3 | 0/4 | >269.0 | 1/4 | >463.4 | 2/4 | >745.1 | 4/4 | >745.1 | 4/4 | 100 | 21.9 | 100 | 100 | 100 | Inhibition rate (%) [1, 6]: 100%; Inhibition rate (%) [1, 7]: Toxic(5/5)^*6; MTD [1]: 100; MED [1]: 3.12; M.E.D. [1]: 3.12 mg/kg/day; ILS (%) (Leukemia L-1210; dose 0.78 mg/kg/day): 19.7%; 60-day survivors (Leukemia L-1210; dose 0.78 mg/kg/day): 0/4; increase in the life span of mice (Leukemia L-1210): more than 745%
